Experiment [1] is described as follows: The compound was evaluated for cellular toxicity against [3H]thymidine incorporation into DNA of uninfected mouse L-cells. It is filed as functional.
The subject of experiment [2] is Vaccinia virus. The experiment is described as follows: The compound was tested for inhibitory activity against vaccinia virus replication; NA=Not active. It counts as functional, organism-based. Particulars: Orthopoxvirus vaccinia.
Experiment [3] deals with Vaccinia virus. Put plainly: The compound was tested for inhibitory activity against vaccinia virus replication. It is filed as functional. Particulars: Orthopoxvirus vaccinia; read-out: ID50 (the source's name).

The source of these data is ChEMBL document CHEMBL1123381, “Synthesis and antiviral evaluation of 1,4-dioxane nucleoside analogues related to nucleoside dialdehydes” (1986).

The structures appear in SMILES notation. Activity calls are given as the source filed them. No cut-off for these calls is given here.

Consider `Nc1nc(O)c2ncn(C3COCC(CO)O3)c2n1` (stereo not drawn), for which the “[3H]thymidine incorporation, % of control” value in experiment [1] was found to be 99%. Also, in the experiment on Vaccinia virus [2], the ID50 entry is “inactive”.

Regarding `Nc1ncnc2c1ncn2C1COCC(CO)O1` (stereo not drawn), in experiment [1], the “[3H]thymidine incorporation, % of control” value turned out to be 95%. Further, the ID50 entry in the experiment on Vaccinia virus [2] is “inactive”.

Turning to `C=C(CO)OC(=C)n1cnc2c(N)ncnc21`, the “[3H]thymidine incorporation, % of control” value in experiment [1] amounted to 104%. For the same molecule, in the experiment on Vaccinia virus [3], the IC50 was 30 µM.

As to `Nc1ncnc2c1ncn2[C@@H](C=O)O[C@@H](C=O)CO`, the “[3H]thymidine incorporation, % of control” value in experiment [1] came out at 8.3%. For the same molecule, the IC50 in the experiment on Vaccinia virus [3] amounted to 0.3 µM.
